Data on 25 molecules can be found in patent US9169254B2, “Spiroimidazolone derivative” (Chugai Seiyaku Kabushiki Kaisha, priority 2009, dated 2015).

The target in this experiment is T1, human PTH1 receptor (Homo sapiens, UniProt Q03431).
T1 sequence (Q03431 27-593): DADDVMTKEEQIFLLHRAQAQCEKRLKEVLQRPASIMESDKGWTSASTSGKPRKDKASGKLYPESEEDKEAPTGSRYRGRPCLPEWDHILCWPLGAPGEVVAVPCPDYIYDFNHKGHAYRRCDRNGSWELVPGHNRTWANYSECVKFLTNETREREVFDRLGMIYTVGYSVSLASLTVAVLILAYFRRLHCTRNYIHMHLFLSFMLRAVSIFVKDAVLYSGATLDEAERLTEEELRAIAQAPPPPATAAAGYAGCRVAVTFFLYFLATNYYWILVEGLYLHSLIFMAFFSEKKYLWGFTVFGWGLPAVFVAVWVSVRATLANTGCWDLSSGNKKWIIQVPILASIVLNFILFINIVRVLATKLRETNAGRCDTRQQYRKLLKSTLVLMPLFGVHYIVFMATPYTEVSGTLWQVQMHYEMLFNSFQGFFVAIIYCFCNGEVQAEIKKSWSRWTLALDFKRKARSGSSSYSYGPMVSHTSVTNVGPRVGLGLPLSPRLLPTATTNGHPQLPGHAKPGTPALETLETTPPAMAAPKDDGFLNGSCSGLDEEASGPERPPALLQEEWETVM
Kind of experiment: In vitro cAMP signal activity in HKRK-B7 cells (LLC-PK1 cells overexpressing the human PTH1 receptor). Type of experiment: cell-based. Conditions: HKRK-B7 cells; compound at 1×10^−3 M; cAMP produced as percentage of that produced by hPTH(1-34) at 100 nM.

Take `CN(C)C(=O)n1ccc2c(CCS(=O)(=O)N3CCC4(CC3)N=C(C3CCCCC3)NC4=O)cccc21` [Compound 310, 4-[2-(2-cyclohexyl-4-oxo-1,3,8-triaza-spiro[4.5]dec-1-ene-8-sulfonyl)-ethyl]-indole-1-carboxylic acid dimethylamide]: the “cAMP production activity (%)” value is 76%.

In the case of `CN(C)C(=O)c1cccc(-c2ccc(S(=O)(=O)N3CCC4(CC3)N=C(c3cccc(C(F)(F)F)c3)NC4=O)s2)c1` [Compound 330, N,N-dimethyl-3-{5-[4-oxo-2-(3-trifluoromethyl-phenyl)-1,3,8-triaza-spiro[4.5]dec-1-ene-8-sulfonyl]-thiophen-2-yl}-benzamide], the “cAMP production activity (%)” value is listed as 23%.

Consider `Cc1cc(NS(=O)(=O)NCCCO)ccc1CCS(=O)(=O)N1CCC2(CC1)N=C(c1cccc(OC(F)(F)F)c1)NC2=O` [Compound 875, N-(3-hydroxy-propyl)-N′-(3-methyl-4-{2-[4-oxo-2-(3-trifluoromethoxy-phenyl)-1,3,8-triaza-spiro[4.5]dec-1-ene-8-sulfonyl]-ethyl}-phenyl)-sulfamide], for which the “cAMP production activity (%)” value came out at 65%.

Turning to `CCCc1cccc(-c2cccc(C3=NC4(CCN(S(=O)(=O)CCc5c(C)cc(N(C)C(N)=O)cc5C)CC4)C(=O)N3)c2)c1` [Compound 1136, 1-(3,5-Dimethyl-4-{2-[4-oxo-2-(3′-propyl-biphenyl-3-yl)-1,3,8-triaza-spiro[4.5]dec-1-ene-8-sulfonyl]-ethyl}-phenyl)-1-methyl-urea], the “cAMP production activity (%)” value stood at 112%.

For `CCCOCCCCCC1=NC2(CCN([S@TB18](=O)(=O)/C=C/c3c(C)cc(N(C)C(N)=O)cc3C)CC2)C(=O)N1` [Compound 1124, 1-(3,5-dimethyl-4-{(E)-2-[4-oxo-2-(5-propoxy-pentyl)-1,3,8-triaza-spiro[4.5]dec-1-ene-8-sulfonyl]-vinyl}-phenyl)-1-methyl-urea], the “cAMP production activity (%)” value stood at 119%.

On to `Cc1cc(N2CCC2=O)ccc1/C=C/S(=O)(=O)N1CCC2(CC1)N=C(C1CCCCC1)NC2=O` [Compound 572, 2-cyclohexyl-8-{(E)-2-[2-methyl-4-(2-oxo-azetidin-1-yl)-phenyl]-ethenesulfonyl}-1,3,8-triaza-spiro[4.5]dec-1-en-4-one], for which the “cAMP production activity (%)” value is reported as 36%.

In the case of `O=C(CCCOCc1ccccc1)N1CCCC(C2=NC3(CCN(S(=O)(=O)CCc4cccc5ccccc45)CC3)C(=O)N2)C1` (stereo not shown) [Compound 436, 2-[1-(4-benzyloxy-butyryl)-piperidin-3-yl]-8-(2-naphthalen-1-yl-ethanesulfonyl)-1,3,8-triaza-spiro[4.5]dec-1-en-4-one], the “cAMP production activity (%)” value is recorded as 28%.

With `O=C1NC(C2CCCCC2)=NC12CCN(S(=O)(=O)CCC/C=C/c1cccc3[nH]ccc13)CC2` [Compound 252, 2-Cyclohexyl-8-[(E)-5-(1H-indol-4-yl)-pent-4-ene-1-sulfonyl]-1,3,8-triaza-spiro[4.5]dec-1-en-4-one], the “cAMP production activity (%)” value is 28%.

With `CC(C)COC(=O)Nc1ccc(CCS(=O)(=O)N2CCC3(CC2)N=C(C2CCCCC2)NC3=O)c(C(F)(F)F)c1` [Compound 661, {4-[2-(2-cyclohexyl-4-oxo-1,3,8-triaza-spiro[4.5]dec-1-ene-8-sulfonyl)-ethyl]-3-trifluoromethyl-phenyl}-carbamic acid isobutyl ester], the “cAMP production activity (%)” value is on record as 45%.

Turning to `CC(=O)Nc1ccc(CCS(=O)(=O)N2CCC3(CC2)N=C(C2CCCCCC2)NC3=O)c(C)c1` [Compound 917, N-{4-[2-(2-Cycloheptyl-4-oxo-1,3,8-triaza-spiro[4.5]dec-1-ene-8-sulfonyl)-ethyl]-3-methyl-phenyl}-acetamide], the “cAMP production activity (%)” value was 69%.

`CCCCCc1ccc(C2=NC3(CCN(S(=O)(=O)CCc4c(C)cc(N(C)C(N)=O)cc4C)CC3)C(=O)N2)cc1` [Compound 1342, 1-(3,5-dimethyl-4-{2-[4-oxo-2-(4-pentyl-phenyl)-1,3,8-triaza-spiro[4.5]dec-1-ene-8-sulfonyl]-ethyl}-phenyl)-1-methyl-urea]: the “cAMP production activity (%)” value is reported as 114%.

`CC(=O)N(C)c1cccc(/C=C/S(=O)(=O)N2CCC3(CC2)N=C(c2cccc(OC(F)(F)F)c2)NC3=O)c1C` [Compound 236, N-methyl-N-(2-methyl-3-{(E)-2-[4-oxo-2-(3-trifluoromethoxy-phenyl)-1,3,8-triaza-spiro[4.5]dec-1-ene-8-sulfonyl]-vinyl}-phenyl)-acetamide]: the “cAMP production activity (%)” value is recorded as 40%.

As for `Cc1cc(N(C)C(N)=O)cc(C)c1CCS(=O)(=O)N1CCC2(CC1)N=C(CCCCCCCCC(F)(F)F)NC2=O` [Compound 1046, 1-(3,5-dimethyl-4-{2-[4-oxo-2-(9,9,9-trifluoro-nonyl)-1,3,8-triaza-spiro[4.5]dec-1-ene-8-sulfonyl]-ethyl}-phenyl)-1-methyl-urea], the “cAMP production activity (%)” value came to 101%.

Turning to `CNC(=O)c1ccc(C)c(CCS(=O)(=O)N2CCC3(CC2)N=C(c2cccc(OC(F)(F)F)c2)NC3=O)c1` [Compound 415, 4,N-dimethyl-3-{2-[4-oxo-2-(3-trifluoromethoxy-phenyl)-1,3,8-triaza-spiro[4.5]dec-1-ene-8-sulfonyl]-ethyl}-benzamide], the “cAMP production activity (%)” value amounted to 56%.

With `Cc1cc(C(=O)N2CCN(C(=O)N(C)C)CC2)cc(C)c1/C=C/S(=O)(=O)N1CCC2(CC1)N=C(c1cccc(OC(F)(F)F)c1)NC2=O` [Compound 395, 4-(3,5-dimethyl-4-{(E)-2-[4-oxo-2-(3-trifluoromethoxy-phenyl)-1,3,8-triaza-spiro[4.5]dec-1-ene-8-sulfonyl]-vinyl}-benzoyl)-piperazine-1-carboxylic acid dimethylamide], the “cAMP production activity (%)” value was determined as 88%.

As for `O=C1NC(C2CCCN(S(=O)(=O)CCc3cccc4ccccc34)C2)=NC12CCN(S(=O)(=O)CCc1cccc3ccccc13)CC2` (stereo not shown) [Compound 39, 8-(2-Naphthalen-1-yl-ethanesulfonyl)-2-[1-(2-naphthalen-1-yl-ethanesulfonyl)-piperidin-3-yl]-1,3,8-triaza-spiro[4.5]dec-1-en-4-one], the “cAMP production activity (%)” value turned out to be 25%.

As for `Cc1cc(C(=O)N2CCN(c3ncccn3)CC2)ccc1CCS(=O)(=O)N1CCC2(CC1)N=C(c1cccc(C(F)(F)F)c1)NC2=O` [Compound 359, 8-{2-[2-methyl-4-(4-pyrimidin-2-yl-piperazine-1-carbonyl)-phenyl]-ethanesulfonyl}-2-(3-trifluoromethyl-phenyl)-1,3,8-triaza-spiro[4.5]dec-1-en-4-one], the “cAMP production activity (%)” value is 65%.

On to `Cc1cc(/C=C/S(=O)(=O)N2CCC3(CC2)N=C(C2CCC(C)CC2)NC3=O)cc(C)c1N1C(=O)CNC1=O` (stereo not shown) [Compound 583, 3-(2,6-dimethyl-4-{(E)-2-[2-(4-methyl-cyclohexyl)-4-oxo-1,3,8-triaza-spiro[4.5]dec-1-ene-8-sulfonyl]-vinyl}-phenyl)-imidazolidine-2,4-dione], for which the “cAMP production activity (%)” value is 85%.

For `Cc1cc(C(=O)N2CC(O)C2)cc(C)c1CCS(=O)(=O)N1CCC2(CC1)N=C(c1cccc(OC(F)(F)F)c1)NC2=O` [Compound 965, 8-{2-[4-(3-hydroxy-azetidine-1-carbonyl)-2,6-dimethyl-phenyl]-ethanesulfonyl}-2-(3-trifluoromethoxy-phenyl)-1,3,8-triaza-spiro[4.5]dec-1-en-4-one], the “cAMP production activity (%)” value worked out at 115%.

In the case of `Cc1cc2ccc1CCS(=O)(=O)N1CCC3(CC1)N=C(NC3=O)c1cc(cc(C(F)(F)F)c1)OCCCCCCOCCN(C)C2=O` [Compound 1437], the “cAMP production activity (%)” value is reported as 57%.

Regarding `Cc1cc(C(=O)N(C)C)ccc1CCS(=O)(=O)N1CCC2(CC1)N=C(C1CCC(CCCC(F)(F)F)CC1)NC2=O` (stereo not shown) [Compound 897, 3,N,N-trimethyl-4-(2-{4-oxo-2-[4-(4,4,4-trifluoro-butyl)-cyclohexyl]-1,3,8-triaza-spiro[4.5]dec-1-ene-8-sulfonyl}-ethyl)-benzamide], the “cAMP production activity (%)” value is reported as 85%.

In the case of `Cc1cc(N2C(=O)CNC2=O)ccc1CCS(=O)(=O)N1CCC2(CC1)N=C([C@H]1CC[C@H](CC=C(F)F)CC1)NC2=O` [Compound 946, 3-[4-(2-{2-[4-(3,3-difluoro-allyl)-cyclohexyl]-4-oxo-1,3,8-triaza-spiro[4.5]dec-1-ene-8-sulfonyl}-ethyl)-3-methyl-phenyl]-imidazolidine-2,4-dione], the “cAMP production activity (%)” value is 102%.

For `O=C1NC(C2CCCCC2)=NC12CCN(S(=O)(=O)c1ccc(Br)s1)CC2` [Compound 65, 8-(5-bromo-thiophene-2-sulfonyl)-2-cyclohexyl-1,3,8-triaza-spiro[4.5]dec-1-en-4-one], the “cAMP production activity (%)” value turned out to be 65%.

As for `C=CCCCN(C)C(=O)c1ccc(CCS(=O)(=O)N2CCC3(CC2)N=C(c2cc(OCCC=C)cc(C(F)(F)F)c2)NC3=O)c(C)c1` [Compound 1405, 4-{2-[2-(3-But-3-enyloxy-5-trifluoromethyl-phenyl)-4-oxo-1,3,8-triaza-spiro[4.5]dec-1-ene-8-sulfonyl]-ethyl}-3,N-dimethyl-N-pent-4-enyl-benzamide], the “cAMP production activity (%)” value came out at 51%.

For the molecule `Cc1cc(N(C)C(=O)N(C)C)cc(C)c1/C=C/S(=O)(=O)N1CCC2(CC1)N=C(c1cccc(OC(F)(F)F)c1)NC2=O` [Compound 1013, 1-(3,5-Dimethyl-4-{(E)-2-[4-oxo-2-(3-trifluoromethoxy-phenyl)-1,3,8-triaza-spiro[4.5]dec-1-ene-8-sulfonyl]-vinyl}-phenyl)-1,3,3-trimethyl-urea], the “cAMP production activity (%)” value turned out to be 48%.
